From ChEMBL document CHEMBL5120927, “LEGO-Lipophosphonoxins: A Novel Approach in Designing Membrane Targeting Antimicrobials” (J Med Chem, 2022)
The source made the active and inactive calls. The rule behind the calls is not given here.

How the values were obtained:
Enterococcus faecalis = assay: Antibacterial activity against Enterococcus faecalis ATCC 29212 = CCM 4224 assessed as inhibition of bacterial growth incubated for 24 hrs by microdilution assay; type: functional
Staphylococcus aureus [1] = assay: Antibacterial activity against Staphylococcus aureus ATCC 29213 = CCM 4223 assessed as inhibition of bacterial growth incubated for 24 hrs by microdilution assay; type: functional
Staphylococcus aureus [2] = assay: Antibacterial activity against Staphylococcus aureus ATCC 29213 = CCM 4223 assessed as inhibition of bacterial growth incubated for 24 hrs in presence of BSA by microdilution assay; type: functional
Escherichia coli [3] = assay: Antibacterial activity against Escherichia coli ATCC 25922 = CCM 3954 assessed as inhibition of bacterial growth incubated for 24 hrs by microdilution assay; type: functional
Escherichia coli [4] = assay: Antibacterial activity against Escherichia coli ATCC 25922 = CCM 3954 assessed as inhibition of bacterial growth incubated for 24 hrs in presence of BSA by microdilution assay; type: functional
Pseudomonas aeruginosa [5] = assay: Antibacterial activity against Pseudomonas aeruginosa ATCC 27853 = CCM 3955 assessed as inhibition of bacterial growth incubated for 24 hrs by microdilution assay; type: functional
[6] = Hemolytic activity in human RBC assessed as haemoglobin release measured after 3 hr; type: toxicity, cell-based, Erythrocyte; conditions: red blood cells (erythrocytes)
[7] = Gradient chromatographic hydrophobicity index of the compound at pH 3.7 by HPLC analysis; type: ADME
[8] = system: Staphylococcus epidermidis; assay: Antibacterial activity against Staphylococcus epidermidis CCM 7221 assessed as inhibition of bacterial growth incubated for 24 hrs by microdilution assay; type: functional
Staphylococcus aureus [9] = assay: Antibacterial activity against methicillin resistant Staphylococcus aureus 4591/A assessed as reduction in microbial growth incubated for 24 hrs by microdilution assay; type: functional
Escherichia coli [10] = assay: Antibacterial activity against multidrug-resistant Escherichia coli CE5556 expressing CTX-M-15 assessed as reduction in microbial growth incubated for 24 hrs by microdilution assay; type: functional
Enterococcus faecium = assay: Antibacterial activity against vancomycin resistant Enterococcus faecium 419/ANA assessed as reduction in microbial growth incubated for 24 hrs by microdilution assay; type: functional
Pseudomonas aeruginosa [11] = assay: Antibacterial activity against multidrug-resistant Pseudomonas aeruginosa assessed as reduction in microbial growth incubated for 24 hrs by microdilution assay; type: functional
Staphylococcus aureus [12] = assay: Antibacterial activity against wild type Staphylococcus aureus 4557/A assessed as reduction in microbial growth incubated for 24 hrs by microdilution assay; type: functional
Staphylococcus aureus [13] = assay: Antibacterial activity against […] Staphylococcus aureus 4463/A assessed as reduction in microbial growth incubated for 24 hrs by microdilution assay; type: functional
Staphylococcus aureus [14] = assay: Antibacterial activity against wild type Staphylococcus aureus 4904/C assessed as reduction in microbial growth incubated for 24 hrs by microdilution assay; type: functional
Staphylococcus aureus [15] = assay: Antibacterial activity against wild type Staphylococcus aureus 4883/C assessed as reduction in microbial growth incubated for 24 hrs by microdilution assay; type: functional
Staphylococcus aureus [16] = assay: Antibacterial activity against […] Staphylococcus aureus 4460/A assessed as reduction in microbial growth incubated for 24 hrs by microdilution assay; type: functional
Staphylococcus aureus [17] = assay: Antibacterial activity against wild type Staphylococcus aureus 4482/A assessed as reduction in microbial growth incubated for 24 hrs by microdilution assay; type: functional
Staphylococcus aureus [18] = assay: Antibacterial activity against wild type Staphylococcus aureus 4566/A assessed as reduction in microbial growth incubated for 24 hrs by microdilution assay; type: functional
Staphylococcus aureus [19] = assay: Antibacterial activity against wild type Staphylococcus aureus 4504/A assessed as reduction in microbial growth incubated for 24 hrs by microdilution assay; type: functional
Staphylococcus aureus [20] = assay: Antibacterial activity against wild type Staphylococcus aureus 4740/B assessed as reduction in microbial growth incubated for 24 hrs by microdilution assay; type: functional
Staphylococcus aureus [21] = assay: Antibacterial activity against wild type Staphylococcus aureus 4717/B assessed as reduction in microbial growth incubated for 24 hrs by microdilution assay; type: functional
Staphylococcus aureus [22] = assay: Antibacterial activity against wild type Staphylococcus aureus 4738/B assessed as reduction in microbial growth incubated for 24 hrs by microdilution assay; type: functional
Staphylococcus aureus [23] = assay: Antibacterial activity against […] Staphylococcus aureus 4461/A assessed as reduction in microbial growth incubated for 24 hrs by microdilution assay; type: functional
Staphylococcus aureus [24] = assay: Antibacterial activity against wild type Staphylococcus aureus 4679/B assessed as reduction in microbial growth incubated for 24 hrs by microdilution assay; type: functional
Staphylococcus aureus [25] = assay: Antibacterial activity against wild type Staphylococcus aureus 4502/A assessed as reduction in microbial growth incubated for 24 hrs by microdilution assay; type: functional
Staphylococcus aureus [26] = assay: Antibacterial activity against wild type Staphylococcus aureus 4515/A assessed as reduction in microbial growth incubated for 24 hrs by microdilution assay; type: functional
Staphylococcus aureus [27] = assay: Antibacterial activity against wild type Staphylococcus aureus 5079/C assessed as reduction in microbial growth incubated for 24 hrs by microdilution assay; type: functional
Staphylococcus aureus [28] = assay: Antibacterial activity against wild type Staphylococcus aureus 4788/B assessed as reduction in microbial growth incubated for 24 hrs by microdilution assay; type: functional
Staphylococcus aureus [29] = assay: Antibacterial activity against wild type Staphylococcus aureus 78/CF assessed as reduction in microbial growth incubated for 24 hrs by microdilution assay; type: functional
Staphylococcus aureus [30] = assay: Antibacterial activity against wild type Staphylococcus aureus 77/CF assessed as reduction in microbial growth incubated for 24 hrs by microdilution assay; type: functional
Staphylococcus aureus [31] = assay: Antibacterial activity against wild type Staphylococcus aureus 4561/A assessed as reduction in microbial growth incubated for 24 hrs by microdilution assay; type: functional
Staphylococcus aureus [32] = assay: Antibacterial activity against wild type Staphylococcus aureus 4968/C assessed as reduction in microbial growth incubated for 24 hrs by microdilution assay; type: functional
[33] = Toxicity in rabbit assessed as clinical sign at 10 to 200 mg/kg, po; type: organism-based, Oryctolagus cuniculus; conditions: in vivo, dose 10-200 mg/kg
[34] = Toxicity in rabbit assessed as clinical sign at 0.5 to 15 mg/kg, sc; type: organism-based, Oryctolagus cuniculus; conditions: in vivo, dose 0.5-15 mg/kg
[35] = Toxicity in rabbit assessed as pathological changes in necropsy at 10 to 200 mg/kg, po; type: organism-based, Oryctolagus cuniculus; conditions: in vivo, dose 10-200 mg/kg
[36] = Toxicity in rabbit assessed as pathological changes in necropsy at 0.5 to 15 mg/kg, sc; type: organism-based, Oryctolagus cuniculus; conditions: in vivo, dose 0.5-15 mg/kg
Staphylococcus aureus [37] = assay: microbe, parasite or virus in culture; conditions: 4862/C, 24 h
Description: Antibacterial activity against wild type Staphylococcus aureus 4862/C assessed as reduction in microbial growth incubated for 24 hrs by microdilution assay

Staphylococcus aureus [38] = assay: microbe, parasite or virus in culture; conditions: 4880/C, 24 h
Description: Antibacterial activity against wild type Staphylococcus aureus 4880/C assessed as reduction in microbial growth incubated for 24 hrs by microdilution assay

Staphylococcus aureus [39] = assay: microbe, parasite or virus in culture; conditions: 5017/C, 24 h
Description: Antibacterial activity against wild type Staphylococcus aureus 5017/C assessed as reduction in microbial growth incubated for 24 hrs by microdilution assay

Escherichia coli [40] = assay: Bactericidal activity against Escherichia coli CCM 3954 assessed as reduction in viable cell count measured after 24 hrs by Time kill assay; type: functional, organism-based; conditions: dose 2-8 mg/L, DDE = dose-dependent effect
Staphylococcus aureus [41] = assay: Bactericidal activity against Staphylococcus aureus CCM 4223 assessed as reduction in viable cell count measured after 24 hrs by Time kill assay; type: functional, organism-based; conditions: DDE = dose-dependent effect
Cell membrane [42] = assay: Induction of cell envelope damage in Staphylococcus aureus assessed as loss of cell integrity at 8 mg/L measured after 8 hrs by scanning electron microscope analysis; type: subcellular
Cell membrane [43] = assay: Induction of cell envelope damage in Staphylococcus aureus assessed as loss of cytoplasmic content at 8 mg/L measured after 8 hrs by scanning electron microscope analysis; type: subcellular
Cell membrane [44] = assay: Induction of cell envelope damage in Staphylococcus aureus assessed as tubular structure at 8 mg/L measured after 8 hrs by scanning electron microscope analysis
Cell membrane [45] = assay: Induction of cell envelope damage in Staphylococcus aureus assessed as membranous nanotubes extrude from dying/dead cells at 8 mg/L measured after 8 hrs by scanning electron microscope analysis
[46] = Cytotoxicity against human HepG2 cells assessed as reduction in cell viability; type: toxicity, cell-based
[47] = Toxicity in human epidermis model assessed as skin irritation incubated for 42 hrs; type: tissue-based
[48] = Toxicity in human cornea epidermis model assessed as eye irritation incubated for 42 hrs; type: tissue-based
[49] = Toxicity in human cornea epidermis model assessed as tissue viability pretreated for 1 hr and measured after 42 hrs by MTT assay relative to control; type: tissue-based; conditions: read-out: Activity
[50] = Toxicity in rabbit assessed as eye irritation at 100 mg/L measured at 1 to 168 hrs; parameters: species or system Oryctolagus cuniculus; conditions: in vivo, topical_or_ocular, time 1-168 hrs
[51] = Toxicity in rabbit assessed as skin irritation at 100 to 200 mg/L after administration bandaged for 4 hrs and measured after 1 to 72 hrs of contact time; parameters: species or system Oryctolagus cuniculus; conditions: in vivo, topical_or_ocular, dose lower 100 mg/L, time lower 1 hrs, dose upper 200 mg/L, time upper 76 hrs
[52] = Toxicity in rabbit assessed as maximum tolerated dose administered subcutaneously; parameters: species or system Oryctolagus cuniculus; conditions: in vivo, route sc
[53] = Toxicity in rabbit assessed as maximum tolerated dose administered orally; parameters: species or system Oryctolagus cuniculus; conditions: in vivo, route po

CCCC/C=C\CCOP(=O)(CCN(CCCN)CCCN)OCCCCCOP(=O)(CCN(CCCN)CCCN)OCC/C=C\CCCC.Cl.Cl.Cl.Cl.Cl.Cl (configuration not stated)
MIC (Enterococcus faecalis): 32 µg/mL | MIC (Staphylococcus aureus [1]): 2 µg/mL | MIC (Staphylococcus aureus [2]): 8 µg/mL | MIC (Escherichia coli [3]): 8 µg/mL | MIC (Escherichia coli [4]): 4 µg/mL | MIC (Pseudomonas aeruginosa [5]): 32 µg/mL | HC50 at 3 h [6]: 70 µg/mL | CHI [7]: 33.3 | MIC [8]: 0.5 µg/mL | MIC (Staphylococcus aureus [9]): 2 µg/mL | MIC (Escherichia coli [10]): 4 µg/mL | MIC (Enterococcus faecium): 128 µg/mL | MIC (Pseudomonas aeruginosa [11]): 32 µg/mL | MIC (Staphylococcus aureus [12]): 2 µg/mL | MIC (Staphylococcus aureus [13]): 4 µg/mL | MIC (Staphylococcus aureus [14]): 4 µg/mL | MIC (Staphylococcus aureus [15]): 2 µg/mL | MIC (Staphylococcus aureus [16]): 4 µg/mL | MIC (Staphylococcus aureus [17]): 4 µg/mL | MIC (Staphylococcus aureus [18]): 4 µg/mL | MIC (Staphylococcus aureus [19]): 4 µg/mL | MIC (Staphylococcus aureus [20]): 4 µg/mL | MIC (Staphylococcus aureus [21]): 2 µg/mL | MIC (Staphylococcus aureus [22]): 4 µg/mL | MIC (Staphylococcus aureus [23]): 4 µg/mL | MIC (Staphylococcus aureus [24]): 4 µg/mL | MIC (Staphylococcus aureus [25]): 4 µg/mL | MIC (Staphylococcus aureus [26]): 4 µg/mL | MIC (Staphylococcus aureus [27]): 4 µg/mL | MIC (Staphylococcus aureus [28]): 4 µg/mL | MIC (Staphylococcus aureus [29]): 8 µg/mL | MIC (Staphylococcus aureus [30]): 4 µg/mL | MIC (Staphylococcus aureus [31]): 4 µg/mL | MIC (Staphylococcus aureus [32]): 4 µg/mL | Activity [33]: Non-Toxic | Activity [34]: Non-Toxic | Activity [35]: Non-Toxic | Activity [36]: Non-Toxic | MIC (Staphylococcus aureus [37]): 4 µg/mL | MIC (Staphylococcus aureus [38]): 4 µg/mL | MIC (Staphylococcus aureus [39]): 4 µg/mL

CCCCCCCCOP(=O)(CCN(CCCN)CCCN)OCCCCOP(=O)(CCN(CCCN)CCCN)OCCCCCCCC.Cl.Cl.Cl.Cl.Cl.Cl (configuration not stated)
MIC (Enterococcus faecalis): 4 µg/mL | MIC (Staphylococcus aureus [1]): 2 µg/mL | MIC (Staphylococcus aureus [2]): 2 µg/mL | MIC (Escherichia coli [3]): 2 µg/mL | MIC (Escherichia coli [4]): 1 µg/mL | MIC (Pseudomonas aeruginosa [5]): 4 µg/mL | HC50 at 3 h [6]: 263 µg/mL | CHI [7]: 35.3 | MIC [8]: 1 µg/mL | MIC (Staphylococcus aureus [9]): 2 µg/mL | MIC (Escherichia coli [10]): 2 µg/mL | MIC (Enterococcus faecium): 64 µg/mL | MIC (Pseudomonas aeruginosa [11]): 4 µg/mL | MIC (Staphylococcus aureus [12]): 1 µg/mL | MIC (Staphylococcus aureus [13]): 2 µg/mL | MIC (Staphylococcus aureus [14]): 1 µg/mL | MIC (Staphylococcus aureus [15]): 1 µg/mL | MIC (Staphylococcus aureus [16]): 1 µg/mL | MIC (Staphylococcus aureus [17]): 1 µg/mL | MIC (Staphylococcus aureus [18]): 1 µg/mL | MIC (Staphylococcus aureus [19]): 2 µg/mL | MIC (Staphylococcus aureus [20]): 1 µg/mL | MIC (Staphylococcus aureus [21]): 1 µg/mL | MIC (Staphylococcus aureus [22]): 1 µg/mL | MIC (Staphylococcus aureus [23]): 2 µg/mL | MIC (Staphylococcus aureus [24]): 2 µg/mL | MIC (Staphylococcus aureus [25]): 2 µg/mL | MIC (Staphylococcus aureus [26]): 1 µg/mL | MIC (Staphylococcus aureus [27]): 1 µg/mL | MIC (Staphylococcus aureus [28]): 1 µg/mL | MIC (Staphylococcus aureus [29]): 2 µg/mL | MIC (Staphylococcus aureus [30]): 2 µg/mL | MIC (Staphylococcus aureus [31]): 2 µg/mL | MIC (Staphylococcus aureus [32]): 2 µg/mL | Activity (Escherichia coli [40]): Dde | Activity (Staphylococcus aureus [41]): Dde | Activity (Cell membrane [42]): Active | Activity (Cell membrane [43]): Active | Activity (Cell membrane [44]): Active | Activity (Cell membrane [45]): Active | CC50 [46]: 95.9 µM | Activity [47]: Non-Toxic | Activity [48]: Non-Toxic | viability at 42 h [49]: > 60% | Activity [50]: Non-Toxic | Activity [51]: Non-Toxic | MTD [52]: > 15 mg/kg | MTD [53]: > 200 mg/kg | MIC (Staphylococcus aureus [37]): 1 µg/mL | MIC (Staphylococcus aureus [38]): 1 µg/mL | MIC (Staphylococcus aureus [39]): 1 µg/mL
